Source: patent publication US20170158636A1, “FUNCTIONALISED AND SUBSTITUTED CARBAZOLES AS ANTI-CANCER AGENTS” (Novogen Ltd., priority 2014, published 2017)

Experiments:
[1] = test system: IL-6; experiment: Cytokine release from LPS-stimulated PBMCs (HTRF); type: cell-based; conditions: PBMC, human PBMCs
Procedure: (§1) The ability of compounds 1004, 1007 and 1018 to inhibit the release of cytokines TNF-α, IFN-γ, IL-6, IL-21, IL-17A and IL-23 was evaluated in vitro (Tables 2 and 3). Briefly, human peripheral blood mononuclear cells (PBMCs) were isolated from human peripheral blood by Histopaque density gradient centrifugation. The freshly isolated PBMCs were seeded at 50,000 cells/well in a 96-well half area plate. PBMCs were dosed with the test compounds (at 10 μM, 1 μM and 0.1 μM) and then incubated at 37° C. and 5% CO2 for 2 hours. To stimulate release of the cytokines IFN-γ, IL-21, IL-17A and IL-23, the PBMCs were treated with 50 ng/mL of phorbol 12-myristate 13-acetate (PMA) and 1 μg/mL of ionomycin and to stimulate the release of TNF-α and IL-6, PBMCs were treated with 100 ng/mL of lipopolysaccharide (LPS) from gram-negative bacteria. The PBMCs were then incubated at 37° C. and 5% CO2 for a further 6 hours and the cell supernatant was collected and a Homogenous Time Resolved Fluorescence (HTRF) assay was carried out following the manufacturer's instructions. Cytokine release from the PBMCs was captured using a Perkin Elmer ENVISION 2104 microplate reader set at 615 nm and 665 nm respectively.

[2] = test system: TNF-α; experiment: Cytokine release from LPS-stimulated PBMCs (HTRF); type: cell-based; conditions: PBMC, human PBMCs
Procedure: as §1

[3] = test system: IL-23; experiment: Cytokine release from PMA/ionomycin-stimulated PBMCs (HTRF); type: cell-based; conditions: PBMC, human PBMCs, PMA and ionomycin
Procedure: as §1

[4] = test system: IL-17A; experiment: as above; type: cell-based; conditions: PBMC, human PBMCs, PMA and ionomycin
Procedure: as §1

[5] = test system: IL-21; experiment: as above; type: cell-based; conditions: PBMC, human PBMCs, PMA and ionomycin
Procedure: as §1

[6] = test system: IFN-γ; experiment: as above; type: cell-based; conditions: PBMC, human PBMCs, PMA and ionomycin
Procedure: as §1

[7] = test system: PC3 prostate cancer cells; experiment: Anti-proliferative activity, cell-titre luminescent viability assay; type: cell-based; conditions: 72 hours exposure
Procedure: (§2) The ability of compounds 1001-1018 and 1037-1039 to inhibit the proliferation of cancer cells representative of neuroblastoma, melanoma, prostate cancer, colorectal cancer, non-small cell lung carcinoma, and triple negative breast cancer was assessed (Table 1).
(§3) Briefly, a pre-determined number of cells as calculated from cell growth assays for each of the cell lines employed were seeded into their respective culture medium (using ATCC culture parameters—http://www.atcc.org) and cultured for 24 hours at 37° C. and 5% CO2 in 96-well culture plates. Once attached, each cell line was then exposed to increasing concentrations of each respective analogue (0.03, 0.3, 3 and 30 μM for compounds 1001-13 and 1015-18; 0.1, 0.3, 1, 3, 10 and 30 μM for compounds 1014 and 1037-39), cultured for a further 72 hours and exposed to cell-titre luminescent reagent (100 μL/well) for a further 30 minutes) to measure cell viability. Luminescence was captured using an EnVision multilabel reader and the data for each analogue concentration compared against no treatment control. For compounds 1001-13 and 1015-18, semi-log plots of Percent of Control versus concentration were prepared and IC50 determined using linear regression analysis. For compounds 1014 and 1037-39, cell viability was normalized to control (vehicle alone) and dose-response curves, and half maximal effective concentration (EC50) values were determined using Graph Pad Prism 6 (nonlinear regression sigmoidal dose-response variable slope).

[8] = test system: SK-N-SH neuroblastoma cells; experiment: as above; type: cell-based; conditions: Homo sapiens, 72 hours exposure
Procedure: as §2, §3

[9] = test system: CaCo2 colorectal cancer cells; experiment: as above; type: cell-based; conditions: Homo sapiens, Caco-2, 72 hours exposure
Procedure: as §2, §3

[10] = test system: A549 lung (NSLC) cancer cells; experiment: as above; type: cell-based; conditions: Homo sapiens, 72 hours exposure
Procedure: as §2, §3

[11] = test system: DU145 prostate cancer cells; experiment: as above; type: cell-based; conditions: Homo sapiens, DU-145, 72 hours exposure
Procedure: as §2, §3

[12] = test system: MDA-MB-231 breast cancer cells; experiment: as above; type: cell-based; conditions: Homo sapiens, 72 hours exposure
Procedure: as §2, §3

[13] = test system: SK-Mel-28 melanoma cells; experiment: as above; type: cell-based; conditions: Homo sapiens, 72 hours exposure
Procedure: as §2, §3

[14] = test system: actin cytoskeleton in SK-N-SH neuroblastoma cells; experiment: Microfilament disruption assay (phalloidin staining, linear feature quantitation); type: cell-based; conditions: 0-40 μM, 24 hours post treatment
Procedure: FIG. 1: Imaging and quantitation of actin filaments in SK-N-SH neuroblastoma cells treated with compound (A) 1007, (B) 1013 and (C) 1016. Cells were stained with 488-Atto-Phallodin and DAPI to visualize the actin filament bundles and the nucleus, respectively. Shown in the top panel is a representative gray scale immunofluorescent image from control (vehicle alone), 5 μM and 10 μM treated cells. […] The coloured lines indicate the detected actin filaments. Also shown is the quantitation of cell number, filament number/cell and filament number/cell area (μM^2). Statistical analysis was performed using a one way ANNOVA-multiple comparison where each drug treated group was compared to the control. ****p<0.0001, […].
The ability of compounds 1007, 1013 and 1016 to disrupt the actin cytoskeleton was assessed in vitro using the microfilament disruption assay (FIG. 1).
Briefly, SK-N-SH neuroblastoma cells were seeded at 1800 cells/well in a 384 Perkin Elmer High Content Imaging “Cell Carrier” plate and left to plate down 24 hours prior to treatment. Cells were then treated with 0-40 μM of the test compounds (1:2 serial dilution in a 10 point dose response). 24 hours post treatment, cells were fixed with 4% w/v paraformaldehyde (PBS), permeabilized with Triton-X-100 and stained with 488-Atto-Phallodin and DAPI to visualize the actin filament bundles and the nucleus respectively. Single plane images were obtained on the Perkin Elmer Opera confocal microscope using a 20× objective. Twelve fields of view per condition (representing approximately 300-800 cells) were imaged. Images were then exported and changes in the organization and numbers of actin filaments within the cell were quantitated using a linear feature detection algorithm developed by CSIRO (Vindin et al. 2014). This algorithm detects the “ridge lines” or “peaks” in local pixel intensity in the cell image. It is these “ridge lines” that correspond to actin filament bundles and allow us to quantitate the number of filaments per cell.

[15] = test system: Tpm3.1-containing actin filaments in SK-N-SH neuroblastoma cells; experiment: Disruption of Tpm3.1-containing actin filaments (γ9d staining); type: cell-based; conditions: SK-N-SH cells, 0, 5 and 7.5 μM, 48 hours post treatment
Procedure: FIG. 2: Imaging and quantitation of Tpm3.1-containing actin filaments in SK-N-SH neuroblastoma cells treated with compound (A) 1007, (B) 1013 and (C) 1016. Cells were stained with γ9d (sheep polycolonal, 1:100) followed by 488-conjugated secondary (1:1000) and DAPI to visualize the Tpm3.1 containing filament bundles and the nucleus, respectively. Shown in the top panel is a representative gray scale immunofluorescent image from control (vehicle alone), 5 μM and 7.5 μM treated cells. […] The coloured lines indicate the detected Tpm3.1 containing actin filaments. Also shown is the quantitation of cell number, Tpm3.1 filament number/cell and Tpm3.1 filament number/cell area (μM^2). Statistical analysis was performed using a one way ANNOVA-multiple comparison where each drug treated group was compared to the control. ****p<0.0001.
Another assay was conducted to assess the ability of compounds 1007, 1013 and 1016 to specifically disrupt actin filaments containing Tpm3.1 (FIG. 2). Briefly, SK-N-SH neuroblastoma cells were seeded at 2×10^4 cells/mL in a 10 cm tissue culture plate and left to plate down 24 hours prior to treatment. Cells were then treated with 0, 5 and 7.5 μM of the test compounds. 48 hours post treatment, cells were fixed with 4% w/v paraformaldehyde (PBS), permeabilized with Triton-X-100 and stained with γ9d (sheep polycolonal, 1:100) followed by 488-conjugated secondary (1:1000) and DAPI to visualize the Tpm3.1 containing filament bundles and the nucleus, respectively. Single plane images were obtained on the Zeiss epifluorescent Axioscope microscope using a 20× objective. Six fields of view per condition were imaged. Images were then exported and the linear features (actin filaments containing Tpm3.1) were then quantitated using the linear feature detection algorithm described above.

[16] = test system: Skeletal myosin II; experiment: Actin-activated myosin II ATPase activity; type: biochemical; conditions: 50 μM, absence of Tpm3.1
Procedure: FIG. 4: Effect of anti-tropomyosin compounds on actin-activated myosin II ATPase activity. Skeletal myosin II (30-60 nM) was incubated with 1% (v/v) DMSO or 50 μM of Blebbistatin, TR100 or compound 1001 for 5 min prior to mixing with 3 μM F-actin. Reactions were initiated with 1 mM ATP and inorganic phosphate release was detected spectrophotometrically. Data represents mean±SEM, for n=2-4 independent repeats. **P-value, 0.001<0.01.
To exclude an off-target activity, the impact of compound 1001 and TR100 (another small molecule with anti-tropomyosin activity) on myosin II ATPase activity was evaluated in the absence of Tpm3.1. The small molecule blebbistatin was included as a positive control known to inhibit myosin II ATPase activity. Blebbistatin acts by binding to the myosin-ADP-Pi complex and slowing the release of inorganic phosphate (Kovacs et al., 2004). Myosin II was pre-incubated with 50 μM of blebbistatin, TR100 or 1001 prior to mixing with F-actin. […] Compound 1001 had no effect on myosin ATPase activity at equivalent concentrations to that of TR100 (FIG. 4).

SMILES	inhibition at 0.1 µM [1]	inhibition at 1 µM [1]	inhibition at 10 µM [1]	inhibition at 0.1 µM [2]	inhibition at 1 µM [2]	inhibition at 10 µM [2]	inhibition at 0.1 µM [3]	inhibition at 1 µM [3]	inhibition at 10 µM [3]	inhibition at 0.1 µM [4]	inhibition at 1 µM [4]	inhibition at 10 µM [4]	inhibition at 0.1 µM [5]	IC50 [7]	IC50 [8]	IC50 [9]	IC50 [10]	IC50 [11]	IC50 [12]	IC50 [13]	further results
CN1CCN(CCCn2c3ccccc3c3cc(C(=O)N4CCN(CCc5ccccc5)CC4)ccc32)CC1 [Compound 1018, (4-phenethylpiperazin-1-yl)(9-(3-(4-methylpiperazin-1-yl)propyl)-9H-carbazol-3-yl)methanone]	22%	56%	89%	26%	58%	77%	-6%	-2%	58%	2%	34%	45%	13%	2900 nM	1900 nM	1500 nM	2000 nM	3300 nM	1600 nM	2500 nM	inhibition at 1 µM [5]: 33%; inhibition at 10 µM [5]: 50%; inhibition at 0.1 µM [6]: 2%; inhibition at 1 µM [6]: 19%; inhibition at 10 µM [6]: 92%
CN1CCN(CCCn2c3ccccc3c3cc(C(=O)N4CCN(CCc5cccc(F)c5)CC4)ccc32)CC1 [Compound 1016, (4-(3-fluorophenethyl)piperazin-1-yl)(9-(3-(4-methylpiperazin-1-yl)propyl)-9H-carbazol-3-yl)methanone]	–	–	–	–	–	–	–	–	–	–	–	–	–	4000 nM	2700 nM	3100 nM	3000 nM	2800 nM	2500 nM	2400 nM	disruption of the actin cytoskeleton [14]: disrupt the actin cytoskeleton in a dose-dependent manner; disruption of Tpm3.1-containing actin filaments [15]: disrupt Tpm3.1-containing actin filaments in a dose-dependent manner
Cc1ccc2c(c1)C(=O)C1(O)CCN(c3ccccc3)C1=N2 (stereo not shown) [blebbistatin]	–	–	–	–	–	–	–	–	–	–	–	–	–	–	–	–	–	–	–	–	effect on actin-activated myosin II ATPase activity [16]: strongly inhibited
CN1CCN(CCCn2c3ccccc3c3cc(C(=O)N4CCN(CCc5ccc(F)cc5)CC4)ccc32)CC1 [Compound 1013, (4-(4-fluorophenethyl)piperazin-1-yl)(9-(3-(4-methylpiperazin-1-yl)propyl)-9H-carbazol-3-yl)methanone]	–	–	–	–	–	–	–	–	–	–	–	–	–	3300 nM	2400 nM	2000 nM	3700 nM	3500 nM	2800 nM	2000 nM	disruption of the actin cytoskeleton [14]: disrupt the actin cytoskeleton in a dose-dependent manner; disruption of Tpm3.1-containing actin filaments [15]: disrupt Tpm3.1-containing actin filaments in a dose-dependent manner
CN(C)CCCn1c2ccccc2c2cc(C(=O)N3CCN(CCc4ccc5c(c4)OCO5)CC3)ccc21 [Compound 1004, (4-(2-(benzo[d][1,3]dioxol-5-yl)ethyl)piperazin-1-yl)(9-(3-(dimethylamino)propyl)-9H-carbazol-3-yl)methanone]	-9%	-10%	2%	9%	-8%	1%	-16%	9%	22%	-2%	6%	47%	-6%	2900 nM	2900 nM	3700 nM	3400 nM	3300 nM	3800 nM	3500 nM	inhibition at 1 µM [5]: -3%; inhibition at 10 µM [5]: 2%; inhibition at 0.1 µM [6]: -19%; inhibition at 1 µM [6]: -6%; inhibition at 10 µM [6]: -7%
CCCCCCCCNC(=O)/C(C#N)=C/c1c(C)n(CCCN(C)C)c2ccccc12 [TR100]	–	–	–	–	–	–	–	–	–	–	–	–	–	–	–	–	–	–	–	–	inhibition of actin-activated myosin ATPase activity [16]: ~70%
